Test results reported in patent US6599499B1, “Uses of diterpenoid triepoxides as an anti-proliferative agent” (priority 1999, dated 2003).
Where “and” joins values, the source holds several entries; their conditions need not be identical. Equal values may be shown once.

Tests used:
[1] = tested on: p53 translation; experiment: p53 translation by [35S]methionine metabolic labeling of MCF-7 cells; type: cell-based, human; conditions: MCF-7, triptolide 20 ng/ml pretreatment 6 h
Protocol: Metabolic labeling of MCF-7cells. Cells were grown to 80% confluence followed by pretreatment with triptolide (20 ng/ml) for 6 h in the appropriate medium. Cells were washed twice with short-term labeling medium (RPMI with 5% dialyzed FCS supplemented with L-glutamine, penicillin, and streptomycin). To deplete intracellular pools of methionine short-term labeling medium was added for 15 min at 37° C., then replaced by short-term labeling medium containing 0.1 mCi/ml [^35S] methionine (Amersham, Inc.). Cells were labeled for 30 min at 37° C. and washed with ice-cold PBS before harvesting for immunoprecipitation. The cells were lysed using RIPA buffer supplemented with protease inhibitors and immunoprecipitated using an agarose-conjugated p53 mAb (Ab-6, Oncogene Research Products) followed by 10% SDS-PAGE. The intensity of labeled p53 protein was measured by NIH Image 1.62.

[2] = tested on: Dx5 cells; experiment: Internucleosomal DNA laddering in Dx5 cells; type: cell-based, human
Protocol: Cell death reagents and assays. Cell viability was measured by an MTT assay as recently described (Lee et al. (1999) J. Biol. Chem. 274:13451-13455. z-VAD-fluoromethylketone (z-VAD.fmk) was obtained from Alexis Biochemicals, San Diego, Calif. The effect of z-VAD.fmk on cell viability was analyzed by annexin and propidium iodide staining followed by FACS analysis according to the manufacturer's protocol (Clontech Laboratories, Palo Alto, Calif.). The analysis of apoptosis in histologic sections was done by terminal deoxynucleotidyl transferase (TdT)-mediated d-UTP nick end labeling (TUNEL) of slides from paraffin sections of day 3 tumors harvested from the mice 24 h after the second of two daily treatments with PG490-88 or saline. TUNEL staining was done according to the manufacturer's protocol (Boehringer Mannheim, Indianapolis, Ind.) and then the histology slides were counterstained with methyl green. DNA was isolated from cells for analysis of internucleosomal DNA laddering followed by agarose gel electrophoresis and ethidium bromide staining.
In FIG. 1A, ZR-75 (breast cancer), H23 (non-small cell lung cancer) and Dx5 (MDR uterine sarcoma) cell lines were treated with PG490 at dosages shown and harvested 48 h later for analysis of cell viability by an MTT assay. […]

[3] = tested on: Dx5 and H23 cells; experiment: Growth arrest / cell cycle progression in Dx5 and H23 cells; type: cell-based, human
[4] = tested on: p21 mRNA; experiment: p21 mRNA by Northern blot in HT1080 cells; type: cell-based, human; conditions: triptolide 20 ng/ml
Protocol: (§1) Northern Blot Analysis. RNA was prepared from HT1080 cells using RNeasy Mini Kit from Qiagen Inc. (Valencia, Calif.). cDNAs for Northern blot analysis for p21 and p53 were prepared using RT-PCR with […] of total RNA. The following primer pairs were used: p53, (SEQ ID NO:11) 5′-[…]-3′ and (SEQ ID NO:12) 5′-[…]-3′; p21, (SEQ ID NO:13) 5′-[…]-3′ and (SEQ ID NO:14) 5′-[…]-3′; and glyceraldehyde-3-phosphate dehydrogenase, (SEQ ID NO:15) 5′-[…]-3′ and 5′-(SEQ ID NO:16) […]-3′.

[5] = tested on: HT1080 cells; experiment: Cell viability by trypan blue exclusion, HT1080 cells (Example 5)
Protocol: Cell Viability Assay. HT-1080 cells were seeded into 6-well plates at 2×10^5 per well the day before the treatment. For the inducible expression of exogenous p21 and LacZ, the stable transfectants were cultured in the presence of 5 μM ponasterone A for 16 h. […] The cells were untreated or treated with doxorubicin, triptolide, or the combination of both at indicated dosages for 8 h at 37° C. Subsequently, the medium was replaced with new media plus 5 μM ponasterone A. After 16 h incubation at 37° C., the number of viable cells within the same fields were determined by trypan blue exclusion with a 2% trypan blue solution.

[6] = tested on: p53 mRNA; experiment: p53 mRNA by Northern blot in HT1080 cells; type: cell-based, human
Protocol: as §1

[7] = tested on: p53 mRNA; experiment: p53 mRNA by RT-PCR in MCF-7 cells; type: cell-based, human; conditions: MCF-7 cells treated for 16 h
Protocol: RT-PCR. RNA was prepared from MCF-7 cells using Rneasy Mini Kit from Qiagen Inc. (Valencia, Calif.). cDNAs were prepared using M-MLV reverse transcriptase (Gibco) with 2 μg of total RNA. 1/20 of total cDNA was used in limited (25 cycles) PCR reactions using Taq polymerase (Gibco). The following primer pairs were used: p53 [SEQ ID NO:1] 5′-[…]-3′ and 5′-[SEQ ID NO:2] TCTTCUTXGGCTGGGGAGAG-3′, mdm2, [SEQ ID NO:3] 5′-[…]-3′ and [SEQ ID NO:4] 5′-[…]-3′, p21, [SEQ ID NO:5] 5′-[…]-3′ and [SEQ ID NO:6] 5′-[…]-3′, and glyceraldehyde-3-phosphate dehydrogenase (GAPDH)- [SEQ ID NO:7] 5′-[…]-3′ and [SEQ ID NO:8] 5′-[…]-3′.
In the experiments shown in FIG. 5, RT-PCR was performed using 2 μg of total RNAs extracted from MCF-7 cells. […] GADPH was used as a loading control. The plasmid pBP100-GL2 which contains a p53-binding site in the mdm2 promoter was transiently transfected into MCF-7 cells, and cellular lysates were used for the luciferase assay.

[8] = tested on: HT-29 human colon cancer cell line tumors; experiment: Nude mouse xenograft, established HT-29 colon cancer tumors; type: in vivo, nude mice
Protocol: HT-29 tumor cells grown in tissue culture were harvested and implanted intradermally on the backs of nude mice. Tumor size was monitored by measuring the dimensions of each tumor and calculating tumor volume with a formula. […] PG490-88 treatment at 0.25 mg/kg was administered daily i.p. 5 days per week for 2 weeks. Navelbine at 10 mg/kg was given i.v. on days 0 and 7. Mice in the combination treatment group received PG490-88 i.p. and Navelbine i.v. at the appropriate times. The treatments were given to mice at 100 μl per 10 g of mouse body weight. Tumor dimensions were measured periodically for calculation of tumor volumes. […] The data are presented as mean percent change in tumor volume from day 0 for each treatment group. Toxicity of the treatment was monitored by weighing the mice daily 5 days per week. In FIG. 8, a comparison is provided for tumor volumes on Days 0 and 14. Tumor dimensions were measured periodically for calculation of tumor volumes, and the final determinations were made on day 14.

| SMILES | increase in p53 translation [1] | DNA laddering, time it began [2] | DNA laddering, time of maximum [2] | growth arrest / cell cycle progression [3] | effect on doxorubicin-mediated induction of p21 mRNA [4] | effect on cell death by carboplatinum ([5]; A549 and HT1080 cells) | cytotoxicity at 0.02 µg/mL ([5]; Homo sapiens, HT-1080, 24 h, read-out: reduction of HT1080 cell viability) | level of p53 mRNA [6] | p53 mRNA level [7] | increase in tumor volume from day 0 by day 14 ([8]; PG490-88 0.25 mg/kg i.p. 5 days per week for 2 weeks, Navelbine 10 mg/kg i.v. days 0 and 7) | Day 0 Tumor Volume (mm^3) Mean ([8]; baseline at grouping, before treatment) |
| --- | --- | --- | --- | --- | --- | --- | --- | --- | --- | --- | --- |
| CC(C)[C@]12O[C@H]1[C@@H]1O[C@]13[C@]1(O[C@H]1C[C@H]1C4=C(CC[C@@]13C)C(=O)OC4)[C@@H]2O [PG490, triptolide] | 4.9 fold and 5 fold | 6 h | ≤ 16 h | did not cause growth arrest or significantly affect cell cycle progression | completely blocked | enhanced cell death | 84% | not affected | slightly reduced |  |  |
| CC(C)[C@]12O[C@H]1[C@@H]1O[C@]13[C@]1(O[C@H]1C[C@H]1C4=C(CC[C@@]13C)C(=O)OC4)[C@@H]2OC(=O)CCC(=O)[O-].[Na+] [PG490-88, 14-succinyl triptolide sodium salt] |  |  |  |  |  |  |  |  |  | 238% | 109 mm^3 |
